Test results reported in patent publication US5204326.
Read-outs that look alike come from different tables or passages of the source.

Settings: amide bond
[1] = the molecule shown is the open-chain precursor, 23-membered ring, as Reference Example 8 (not in excerpt), 3 steps

**Q.** With Acp-Asn-Leu-Ser(Bzl)-Thr(Bzl)-Asp-OEt as the substance, how does the ring closure, isolated yield (23-membered ring, ONp active ester (from TFA-ONp)/pyridine, pyridine/DMF, 50.0 °C, 3 steps) read?
**A.** 26.6%

**Q.** With “H-Abu-Asn-Leu-Ser(Bzl)-Thr(Bzl)-Cec(ONp)-OMe?” as the substance, how does the ring closure, isolated yield (the molecule shown is the open-chain precursor, as Reference Example 8 (not in excerpt), 3 steps) read?
**A.** 47.1%

**Q.** Which ring closure, isolated yield [1] does the source give for “H-Asn-Leu-Ser(Bzl)-Thr(Bzl)-Lys(COCH2CH2CO-ONp)-OMe?” here?
**A.** 34.9%

**Q.** For “H-Ser(Bzl)-Asn-Leu-Ser(Bzl)-Thr(Bzl)-Cpc(ONp)-OMe?”, which ring closure, isolated yield [1] is on record?
**A.** 55.9%

**Q.** Which ring closure, isolated yield (the molecule shown is the open-chain precursor, 25-membered ring, as Reference Example 8, then Reference Example 9 (not in excerpt), 4 steps) does the source give for “H-Ser(Bzl)-Asn-Leu-Ser(Bzl)-Thr(Bzl)-Tyr(CH2CO-ONp)-OMe?” here?
**A.** 43.8%
